# From patent US8501713B2, “Drug combinations for the treatment of duchenne muscular dystrophy” (Summit Corporation PLC, priority 2007, dated 2013)
# Test system: Utrophin A promoter linked to a luciferase reporter gene
# Test: Luciferase reporter assay (murine H2K cells)
# Assay type: cell-based
# Settings: Mus musculus, H2K mdx, luciferase level relative to control; H2K/mdx/Utro A reporter cells; compound 10 μM final concentration; read-out: Activity
# Method: 1. Luciferase Reporter Assay (Murine H2K Cells)
# The cell line used for the screen is an immortalized mdx mouse H2K cell line that has been stably transfected with a plasmid containing […] fragment of the Utrophin A promoter including the first untranslated exon linked to a luciferase reporter gene. Under conditions of low temperature and interferon containing media, the cells remain as myoblasts. These are plated into 96 well plates and cultured in the presence of compound for three days. The level of luciferase is then determined by cell lysis and reading of the light output from the expressed luciferase gene utilising a plate luminometer.
# H2K/mdx/Utro A reporter Cell Line Maintenance
# The cells were grown at 33° C. in the presence of 10% CO2. To remove the myoblasts for platting, they were incubated with Trypsin EDTA until the monolayer started to detach.
# The plates were then incubated at 33° C. in the presence of 10% CO2 for 24 hrs. Compounds were dosed by adding 10 μl of diluted compound to each well giving a final concentration of 10 μM. The plates were then incubated for a further 48 hrs. Cells were then lysed in situ following the manufacture's protocols (Promega Steady-Glo Luciferase Assay System (E2520). Then counted for 10 seconds using a plate luminometer (Victor1420).
# Compounds for screening were stored at −20° C. as 10 mM stocks in 100% DMSO until required.
# Biological activity as assessed using the luciferase reporter assay in murine H2K cells, and is classified as follows: […]
row,SMILES,activity at 10 µM [%]
1,"O=C(Nc1ccc2oc(-c3ccc(Cl)cc3)nc2c1)c1ccncc1 [Example 87, N-(2-(4-chlorophenyl)benzo[d]oxazol-5-yl)isonicotinamide]",< 200
2,"O=C(Nc1ccc2oc(-c3ccc(Cl)cc3)nc2c1)c1ccccc1 [Example 88, N-(2-(4-chlorophenyl)benzo[d]oxazol-5-yl)benzamide]",< 200
3,"O=C(Nc1ccc2oc(-c3ccc(Cl)cc3)nc2c1)c1ccc(Cl)cc1 [Example 89, 4-chloro-N-(2-(4-chlorophenyl)benzo[d]oxazol-5-yl)benzamide]",< 200
4,"Cc1ccc(C(=O)Nc2ccc3oc(-c4ccc(Cl)cc4)nc3c2)cc1 [Example 90, N-(2-(4-chlorophenyl)benzo[d]oxazol-5-yl)-4-methylbenzamide]",< 200
5,"COc1ccc(C(=O)Nc2ccc3oc(-c4ccc(Cl)cc4)nc3c2)cc1 [Example 91, N-(2-(4-chlorophenyl)benzo[d]oxazol-5-yl)-4-methoxybenzamide]",< 200
6,"COc1ccccc1C(=O)Nc1ccc2oc(-c3ccc(Cl)cc3)nc2c1 [Example 92, N-(2-(4-chlorophenyl)benzo[d]oxazol-5-yl)-2-methoxybenzamide]",< 200
7,"CN(C)c1ccc(C(=O)Nc2ccc3oc(-c4ccc(Cl)cc4)nc3c2)cc1 [Example 93, N-(2-(4-chlorophenyl)benzo[d]oxazol-5-yl)-4-(dimethylamino)benzamide]",< 200
8,"O=C(Nc1ccc2oc(-c3ccc(Cl)cc3)nc2c1)c1ccc(C(F)(F)F)cc1 [Example 94, N-(2-(4-chlorophenyl)benzo[d]oxazol-5-yl)-4-(trifluoromethyl)benzamide]",< 200
9,"O=C(Nc1ccc2oc(-c3ccc(Cl)cc3)nc2c1)c1cc(Cl)cc(Cl)c1 [Example 95, 3,5-dichloro-N-(2-(4-chlorophenyl)benzo[d]oxazol-5-yl)benzamide]",< 200
10,"O=C(Nc1ccc2oc(-c3ccc(Cl)cc3)nc2c1)c1ccc(F)cc1 [Example 96, N-(2-(4-chlorophenyl)benzo[d]oxazol-5-yl)-4-fluorobenzamide]",< 200
11,"O=C(Cc1ccccc1)Nc1ccc2oc(-c3ccc(Cl)cc3)nc2c1 [Example 97, N-(2-(4-chlorophenyl)benzo[d]oxazol-5-yl)-2-phenylacetamide]",201 to 300
12,"O=C(CCc1ccccc1)Nc1ccc2oc(-c3ccc(Cl)cc3)nc2c1 [Example 98, N-(2-(4-chlorophenyl)benzo[d]oxazol-5-yl)-3-phenylpropanamide]",< 200
13,"CCCC(=O)Nc1ccc2oc(-c3ccc(Cl)cc3)nc2c1 [Example 99, N-(2-(4-chlorophenyl)benzo[d]oxazol-5-yl)butyramide]",> 401
14,"CCCCC(=O)Nc1ccc2oc(-c3ccc(Cl)cc3)nc2c1 [Example 100, N-(2-(4-chlorophenyl)benzo[d]oxazol-5-yl)pentanamide]",201 to 300
15,"CC(C)C(=O)Nc1ccc2oc(-c3ccc(Cl)cc3)nc2c1 [Example 101, N-(2-(4-chlorophenyl)benzo[d]oxazol-5-yl)isobutyramide]",> 401
16,"O=C(Nc1ccc2oc(-c3ccc(Cl)cc3)nc2c1)c1ccco1 [Example 102, N-(2-(4-chlorophenyl)benzo[d]oxazol-5-yl)furan-2-carboxamide]",< 200
17,"O=C(Nc1ccc2oc(-c3ccc(Cl)cc3)nc2c1)c1cccs1 [Example 103, N-(2-(4-chlorophenyl)benzo[d]oxazol-5-yl)thiophene-2-carboxamide]",< 200
18,"Cc1cc2nc(-c3ccc(N)cc3O)[nH]c2cc1C [Example 104, 5-amino-2-(5,6-dimethyl-1H-benzo[d]imidazol-2-yl)phenol]",201 to 300
19,"Cc1cc(-c2nc3ccccc3[nH]2)ccc1[N+](=O)[O-] [Example 105, 2-(3-methyl-4-nitrophenyl)-1H-benzo[d]imidazole]",> 401
20,"O=[N+]([O-])c1ccc2nc(-c3ccccc3O)[nH]c2c1 [Example 106, 2-(6-nitro-1H-benzo[d]imidazol-2-yl)phenol]",< 200
21,"O=C(O)c1ccc2oc(-c3ccccc3)nc2c1 [Example 107, 2-phenylbenzo[d]oxazole-5-carboxylic acid]",301 to 400
22,"CCCc1ccc(-c2nc3cc(C(=O)O)ccc3o2)cc1 [Example 108, 2-(4-propylphenyl)benzo[d]oxazole-5-carboxylic acid]",< 200
23,"CCCc1ccc(-c2nc3ccc(C(=O)O)cc3o2)cc1 [Example 109, 2-(4-propylphenyl)benzo[d]oxazole-6-carboxylic acid]",< 200
24,"CCCc1ccc(-c2nc3ccc(-c4nc5ccc(C(=O)O)cc5o4)cc3o2)cc1 [Example 110, 2′-(4-propylphenyl)-2,6′-bibenzo[d]oxazole-6-carboxylic acid]",< 200

row,SMILES,activity at 10 µM [%]
1,"Clc1ccc2oc(-c3ccccc3)nc2c1 [Example 111, 5-chloro-2-phenylbenzo[d]oxazole]",201 to 300
2,"Clc1ccc2nc(-c3ccccc3)oc2c1 [Example 112, 6-chloro-2-phenylbenzo[d]oxazole]",< 200
3,"Cc1ccc(-c2nc3cc(NC(=O)c4cccnc4)ccc3o2)cc1 [Example 113, N-(2-p-tolylbenzo[d]oxazol-5-yl)nicotinamide]",< 200
4,"Cc1ccc(-c2nc3cc(NC(=O)c4ccncc4)ccc3o2)cc1 [Example 114, N-(2-p-tolylbenzo[d]oxazol-5-yl)isonicotinamide]",< 200
5,"CCC(=O)Nc1ccc2oc(-c3ccc(C)cc3)nc2c1 [Example 115, N-(2-p-tolylbenzo[d]oxazol-5-yl)propionamide]",> 401
6,"CCCC(=O)Nc1ccc2oc(-c3ccc(C)cc3)nc2c1 [Example 116, N-(2-p-tolylbenzo[d]oxazol-5-yl)butyramide]",> 401
7,"CCCCC(=O)Nc1ccc2oc(-c3ccc(C)cc3)nc2c1 [Example 117, N-(2-p-tolylbenzo[d]oxazol-5-yl)pentanamide]",301 to 400
8,"Cc1ccc(-c2nc3cc(NC(=O)C(C)C)ccc3o2)cc1 [Example 118, N-(2-p-tolylbenzo[d]oxazol-5-yl)isobutyramide]",201 to 300
9,"Cc1ccc(-c2nc3cc(NC(=O)c4ccco4)ccc3o2)cc1 [Example 119, N-(2-p-tolylbenzo[d]oxazol-5-yl)furan-2-carboxamide]",< 200
10,"Cc1ccc(-c2nc3cc(NC(=O)c4cccs4)ccc3o2)cc1 [Example 120, N-(2-p-tolylbenzo[d]oxazol-5-yl)thiophene-2-carboxamide]",201 to 300
11,"O=C(Nc1ccc2oc(-c3ccc(C(F)(F)F)cc3)nc2c1)c1cccnc1 [Example 121, N-(2-(4-(trifluoromethyl)phenyl)benzo[d]oxazol-5-yl)nicotinamide]",< 200
12,"O=C(Nc1ccc2oc(-c3ccc(C(F)(F)F)cc3)nc2c1)c1ccncc1 [Example 122, N-(2-(4-(trifluoromethyl)phenyl)benzo[d]oxazol-5-yl)isonicotinamide]",< 200
13,"CC(=O)Nc1ccc2oc(-c3ccc(C(F)(F)F)cc3)nc2c1 [Example 123, N-(2-(4-(trifluoromethyl)phenyl)benzo[d]oxazol-5-yl)acetamide]",201 to 300
14,"CCC(=O)Nc1ccc2oc(-c3ccc(C(F)(F)F)cc3)nc2c1 [Example 124, N-(2-(4-(trifluoromethyl)phenyl)benzo[d]oxazol-5-yl)propionamide]",< 200
15,"CCCC(=O)Nc1ccc2oc(-c3ccc(C(F)(F)F)cc3)nc2c1 [Example 125, N-(2-(4-(trifluoromethyl)phenyl)benzo[d]oxazol-5-yl)butyramide]",< 200
16,"CCCCC(=O)Nc1ccc2oc(-c3ccc(C(F)(F)F)cc3)nc2c1 [Example 126, N-(2-(4-(trifluoromethyl)phenyl)benzo[d]oxazol-5-yl)pentanamide]",< 200
17,"CC(C)C(=O)Nc1ccc2oc(-c3ccc(C(F)(F)F)cc3)nc2c1 [Example 127, N-(2-(4-(trifluoromethyl)phenyl)benzo[d]oxazol-5-yl)isobutyramide]",< 200
18,"O=C(Nc1ccc2oc(-c3ccc(C(F)(F)F)cc3)nc2c1)c1ccco1 [Example 128, N-(2-(4-(trifluoromethyl)phenyl)benzo[d]oxazol-5-yl)furan-2-carboxamide]",< 200
19,"CC(C)(C)c1ccc2oc(-c3ccccc3)nc2c1 [Example 129, 5-tert-butyl-2-phenylbenzo[d]oxazole]",> 401
20,"O=[N+]([O-])c1ccc2nc(-c3ccccc3)oc2c1 [Example 130, 6-nitro-2-phenylbenzo[d]oxazole]",201 to 300
21,"CCN(CC)c1ccc(-c2nc3cc(Cl)ccc3o2)cc1 [Example 131, 4-(5-chlorobenzo[d]oxazol-2-yl)-N,N-diethylaniline]",301 to 400
22,"CCN(CC)c1ccc(-c2nc3ccc(Cl)cc3o2)cc1 [Example 132, 4-(6-chlorobenzo[d]oxazol-2-yl)-N,N-diethylaniline]",> 401
23,"Nc1ccc2[nH]c(-c3ccccc3O)nc2c1 [Example 133, 2-(5-amino-1H-benzo[d]imidazol-2-yl)phenol]",< 200
